Measurements as given in patent US20240116985A1, “STAPLED PEPTIDES AND METHODS THEREOF” (priority 2020, published 2024).

What was measured:
[1] = molecular target: T1, full-length beta-Catenin (Uniprot ID P35222) (Homo sapiens, UniProt P35222); assay: Fluorescence polarization IC50 (beta-catenin / 5FAM-TCF4 10-53 competition); assay type: binding; settings: fluorescence polarization; read-out: beta-Catenin FP IC50
T1 construct: 10 nM full-length beta-Catenin (Uniprot ID P35222)
T1 sequence (P35222 1-781): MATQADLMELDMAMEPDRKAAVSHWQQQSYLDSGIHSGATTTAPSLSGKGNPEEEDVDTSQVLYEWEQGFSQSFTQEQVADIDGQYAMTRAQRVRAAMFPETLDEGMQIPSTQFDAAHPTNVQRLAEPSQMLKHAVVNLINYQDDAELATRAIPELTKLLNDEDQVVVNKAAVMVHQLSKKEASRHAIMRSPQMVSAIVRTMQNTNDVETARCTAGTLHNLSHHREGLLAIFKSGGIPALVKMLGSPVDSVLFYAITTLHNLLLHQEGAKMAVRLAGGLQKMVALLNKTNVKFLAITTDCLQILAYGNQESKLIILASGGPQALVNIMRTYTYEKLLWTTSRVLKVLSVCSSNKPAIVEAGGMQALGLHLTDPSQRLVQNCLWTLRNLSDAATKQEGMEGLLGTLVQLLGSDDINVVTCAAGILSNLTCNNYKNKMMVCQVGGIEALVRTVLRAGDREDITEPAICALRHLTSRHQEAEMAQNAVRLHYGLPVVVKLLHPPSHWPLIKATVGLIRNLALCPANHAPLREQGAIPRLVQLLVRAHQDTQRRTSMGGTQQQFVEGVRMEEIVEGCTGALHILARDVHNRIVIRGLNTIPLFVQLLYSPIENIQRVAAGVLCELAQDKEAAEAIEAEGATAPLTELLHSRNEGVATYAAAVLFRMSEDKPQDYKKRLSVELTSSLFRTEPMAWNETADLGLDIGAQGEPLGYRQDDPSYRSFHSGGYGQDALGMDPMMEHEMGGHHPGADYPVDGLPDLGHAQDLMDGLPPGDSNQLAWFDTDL

[2] = molecular target: T2, beta-catenin/TCF4 engagement (Homo sapiens, UniProt P35222); assay: Nano-BRET target engagement assay (B-cat-Halo & TCF4-Luc in HEK293 cells); assay type: cell-based; settings: absolute IC50; read-out: NanoBRET Abs IC50
T2 construct: expressed in transfected cells; host or cells: HEK293
T2 sequence (P35222 1-781): T1 sequence (P35222 1-781)

Row | IC50 [1] [nM] | IC50 [2] [µM] | Compound
1 | 11 | > 20 | CC(=O)N1CCC[C@]12CC=CCCCC1(CCCC=CCCCOC(=O)N3CC[C@@](C(=O)N[C@@H](Cc4ccsc4)C(=O)N[C@@H](Cc4csc5ccccc45)C(=O)N[C@@H](CCC(N)=O)C(N)=O)(C3)NC(=O)[C@H](CC(N)=O)NC(=O)[C@H](Cc3ccccc3)NC(=O)[C@H](C)NC(=O)[C@H](C)NC(=O)[C@H](Cc3cccc(-c4nnn[nH]4)c3)NC(=O)[C@H](CC(=O)O)NC1=O)NC(=O)[C@H](CC(C)(C)C)NC(=O)[C@H](CC(=O)O)NC2=O (stereo partly drawn) [I-1578, Ac-PL3-Asp-Npg-B5-Asp-3TzF-Ala-Ala-Phe-Asn-PyrS2-3Thi-BztA-Gln-NH2]
2 | 39 | > 20 | CC(=O)N1CCC[C@]12CC=CCCCC1(CCCC=CCCCOC(=O)N3CC[C@@](C(=O)N[C@@H](Cc4ccsc4)C(=O)N[C@@H](Cc4csc5ccccc45)C(=O)N[C@@H](CCC(N)=O)C(N)=O)(C3)NC(=O)[C@H](CC(N)=O)NC(=O)[C@H](Cc3ccccc3)NC(=O)[C@H](C)NC(=O)[C@H](C)NC(=O)[C@H](Cc3ccc(-c4nnn[nH]4)cc3)NC(=O)[C@H](CC(=O)O)NC1=O)NC(=O)[C@H](CC(C)(C)C)NC(=O)[C@H](CC(=O)O)NC2=O (stereo partly drawn) [I-1579, Ac-PL3-Asp-Npg-B5-Asp-4TzF-Ala-Ala-Phe-Asn-PyrS2-3Thi-BztA-Gln-NH2]
3 | 362 | > 20 | CC(=O)N1CCC[C@]12CC=CCCCC1(CCCC=CCCCOC(=O)N3CC[C@@](C(=O)N[C@@H](Cc4ccccc4)C(=O)N[C@@H](Cc4csc5ccccc45)C(=O)N[C@@H](CCC(N)=O)C(N)=O)(C3)NC(=O)[C@H](CC(N)=O)NC(=O)[C@H](Cc3ccccc3)NC(=O)[C@H](C)NC(=O)[C@H](CCCCNC(C)C)NC(=O)[C@H]([C@@H](C)O)NC(=O)[C@H](CC(=O)O)NC1=O)NC(=O)[C@H](CC(C)(C)C)NC(=O)[C@H](CC(N)=O)NC2=O (stereo partly drawn) [I-1602, Ac-PL3-Asn-Npg-B5-Asp-Thr-iPrLys-Ala-Phe-Asn-PyrS2-Phe-BztA-Gln-NH2]
4 | 49 | 11.9 | CC(=O)N1CCC[C@]12CC=CCCCC1(CCCC=CCCCOC(=O)N3CC[C@@](C(=O)N[C@@H](Cc4ccccc4Cl)C(=O)N[C@@H](Cc4csc5ccccc45)C(=O)N[C@@H](CCCN4CCC(F)(F)CC4)C(N)=O)(C3)NC(=O)[C@H]([C@@H](C)O)NC(=O)[C@H](Cc3ccccc3)NC(=O)[C@H](C)NC(=O)[C@H](C)NC(=O)[C@H](CN(CC(=O)O)CC(F)(F)F)NC(=O)[C@H](CC(=O)O)NC1=O)NC(=O)[C@H](CC(C)(C)C)NC(=O)[C@H](CC(=O)O)NC2=O (stereo partly drawn) [I-1607, Ac-PL3-Asp-Npg-B5-Asp-TfeGA-Ala-Ala-Phe-Thr-PyrS2-2C1F-BztA-F2PipNva-NH2]
5 | 76 | 15.1 | CC(=O)N1CCC[C@]12CC=CCCCC1(CCCC=CCCCOC(=O)N3CC[C@@](C(=O)N[C@@H](Cc4ccccc4C(F)(F)F)C(=O)N[C@@H](Cc4csc5ccccc45)C(=O)N[C@@H](CCCN4CCC(F)(F)CC4)C(N)=O)(C3)NC(=O)[C@H](CC(C)C)NC(=O)[C@H](Cc3ccccc3)NC(=O)[C@H](C)NC(=O)[C@H](C)NC(=O)[C@H](Cc3cccc(C(=O)O)c3)NC(=O)[C@H](CC(=O)O)NC1=O)NC(=O)[C@H](CC(C)(C)C)NC(=O)[C@H](CC(=O)O)NC2=O (stereo partly drawn) [I-1608, Ac-PL3-Asp-Npg-B5-Asp-3COOHF-Ala-Ala-Phe-Leu-PyrS2-2F3MeF-BztA-F2PipNva-NH2]
6 | 15 | 6.7 | CC(=O)N1CCC[C@]12CC=CCCCC1(CCCC=CCCCOC(=O)N3CC[C@@](C(=O)N[C@@H](Cc4ccccc4Cl)C(=O)N[C@@H](Cc4csc5ccccc45)C(=O)N[C@@H](CCCN4CCOCC4)C(N)=O)(C3)NC(=O)[C@H]([C@@H](C)O)NC(=O)[C@H](Cc3ccccc3)NC(=O)[C@H](C)NC(=O)[C@H](C)NC(=O)[C@H](CN(CC(=O)O)CC(F)(F)F)NC(=O)[C@H](CC(=O)O)NC1=O)NC(=O)[C@H](CC(C)(C)C)NC(=O)[C@H](CC(=O)O)NC2=O (stereo partly drawn) [I-1609, Ac-PL3-Asp-Npg-B5-Asp-TfeGA-Ala-Ala-Phe-Thr-PyrS2-2C1F-BztA-MorphNva-NH2]
7 | 19 | 4.1 | CC(=O)N1CCC[C@]12CC=CCCCC1(CCCC=CCCCOC(=O)N3CC[C@@](C(=O)N[C@@H](Cc4ccccc4C(F)(F)F)C(=O)N[C@@H](Cc4csc5ccccc45)C(=O)N[C@@H](CCCN4CCOCC4)C(N)=O)(C3)NC(=O)[C@H](CC(C)C)NC(=O)[C@H](Cc3ccccc3)NC(=O)[C@H](C)NC(=O)[C@H](C)NC(=O)[C@H](Cc3cccc(C(=O)O)c3)NC(=O)[C@H](CC(=O)O)NC1=O)NC(=O)[C@H](CC(C)(C)C)NC(=O)[C@H](CC(=O)O)NC2=O (stereo partly drawn) [I-1610, Ac-PL3-Asp-Npg-B5-Asp-3COOHF-Ala-Ala-Phe-Leu-PyrS2-2F3MeF-BztA-MorphNva-NH2]
8 | 10 | 9.8 | CC(=O)N1CCC[C@]12CC=CCCCC1(CCCC=CCCCOC(=O)N3CC[C@@](C(=O)N[C@@H](Cc4ccccc4Cl)C(=O)N[C@@H](Cc4csc5ccccc45)C(=O)N[C@@H](CC(=O)N4CCN(C)CC4)C(N)=O)(C3)NC(=O)[C@H]([C@@H](C)O)NC(=O)[C@H](Cc3ccccc3)NC(=O)[C@H](C)NC(=O)[C@H](C)NC(=O)[C@H](CN(CC(=O)O)CC(F)(F)F)NC(=O)[C@H](CC(=O)O)NC1=O)NC(=O)[C@H](CC(C)(C)C)NC(=O)[C@H](CC(=O)O)NC2=O (stereo partly drawn) [I-1611, Ac-PL3-Asp-Npg-B5-Asp-TfeGA-Ala-Ala-Phe-Thr-PyrS2-2C1F-BztA-MePpzAsn-NH2]
9 | 9 | 5.2 | CC(=O)N1CCC[C@]12CC=CCCCC1(CCCC=CCCCOC(=O)N3CC[C@@](C(=O)N[C@@H](Cc4ccccc4Cl)C(=O)N[C@@H](Cc4csc5ccccc45)C(=O)N[C@@H](CC(=O)N4CCOCC4)C(N)=O)(C3)NC(=O)[C@H]([C@@H](C)O)NC(=O)[C@H](Cc3ccccc3)NC(=O)[C@H](C)NC(=O)[C@H](C)NC(=O)[C@H](CN(CC(=O)O)CC(F)(F)F)NC(=O)[C@H](CC(=O)O)NC1=O)NC(=O)[C@H](CC(C)(C)C)NC(=O)[C@H](CC(=O)O)NC2=O (stereo partly drawn) [I-1613, Ac-PL3-Asp-Npg-B5-Asp-TfeGA-Ala-Ala-Phe-Thr-PyrS2-2C1F-BztA-MorphAsn-NH2]
10 | 15 | 6.4 | CC(=O)N1CCC[C@]12CC=CCCCC1(CCCC=CCCCOC(=O)N3CC[C@@](C(=O)N[C@@H](Cc4ccccc4C(F)(F)F)C(=O)N[C@@H](Cc4csc5ccccc45)C(=O)N[C@@H](CC(=O)N4CCOCC4)C(N)=O)(C3)NC(=O)[C@H](CC(C)C)NC(=O)[C@H](Cc3ccccc3)NC(=O)[C@H](C)NC(=O)[C@H](C)NC(=O)[C@H](Cc3cccc(C(=O)O)c3)NC(=O)[C@H](CC(=O)O)NC1=O)NC(=O)[C@H](CC(C)(C)C)NC(=O)[C@H](CC(=O)O)NC2=O (stereo partly drawn) [I-1614, Ac-PL3-Asp-Npg-B5-Asp-3COOHF-Ala-Ala-Phe-Leu-PyrS2-2F3MeF-BztA-MorphAsn-NH2]
11 | 9 | 8 | CC(=O)N1CCC[C@]12CC=CCCCC1(CCCC=CCCCOC(=O)N3CC[C@@](C(=O)N[C@@H](Cc4ccccc4Cl)C(=O)N[C@@H](Cc4csc5ccccc45)C(=O)N[C@@H](CCCCNC(C)C)C(N)=O)(C3)NC(=O)[C@H]([C@@H](C)O)NC(=O)[C@H](Cc3ccccc3)NC(=O)[C@H](C)NC(=O)[C@H](C)NC(=O)[C@H](CN(CC(=O)O)CC(F)(F)F)NC(=O)[C@H](CC(=O)O)NC1=O)NC(=O)[C@H](CC(C)(C)C)NC(=O)[C@H](CC(=O)O)NC2=O (stereo partly drawn) [I-1615, Ac-PL3-Asp-Npg-B5-Asp-TfeGA-Ala-Ala-Phe-Thr-PyrS2-2C1F-BztA-iPrLys-NH2]
12 | 13 | > 20 | CCN(CC(=O)O)C[C@@H]1NC(=O)[C@H](CC(=O)O)NC(=O)C2(CCCC=CCCCOC(=O)N3CC[C@@](C(=O)N[C@@H](Cc4ccccc4Cl)C(=O)N[C@@H](Cc4csc5ccccc45)C(=O)N[C@@H](CCC(N)=O)C(N)=O)(C3)NC(=O)[C@H](CC(N)=O)NC(=O)[C@H](Cc3ccccc3)NC(=O)[C@H](C)NC(=O)[C@H](C)NC1=O)CCCC=CC[C@]1(CCCN1C(C)=O)C(=O)N[C@@H](CC(=O)O)C(=O)N[C@@H](CC(C)(C)C)C(=O)N2 (stereo partly drawn) [I-1622, Ac-PL3-Asp-Npg-B5-Asp-[Et]GA-Ala-Ala-Phe-Asn-PyrS2-2C1F-BztA-Gln-NH2]
13 | 52.5 | 29.3 | CC(=O)N1CCC[C@]12CC=CCCCC1(CCCC=CCCCCCC[C@@](C)(C(=O)N[C@@H](Cc3ccsc3)C(=O)N[C@@H](Cc3csc4ccccc34)C(=O)N[C@@H](CCC(N)=O)C(N)=O)NC(=O)[C@H](CC(N)=O)NC(=O)[C@H](Cc3ccccc3)NC(=O)[C@H](C)NC(=O)[C@H](C)NC(=O)[C@H](CN(CCC(F)(F)F)CC(=O)O)NC(=O)[C@H](CC(=O)O)NC1=O)NC(=O)[C@H](CC(C)(C)C)NC(=O)[C@H](CC(=O)O)NC2=O (stereo partly drawn) [I-1625, Ac-PL3-Asp-Npg-B5-Asp-[Tfp]GA-Ala-Ala-Phe-Asn-S8-3Thi-BztA-Gln-NH2]
